Measurements: US9267129B2, “Compositions and methods for conferring herbicide resistance” (BEN-GURION UNIVERSITY OF THE NEGEV RESEARCH AND DEVELOPMENT …, priority 2011, dated 2016)

Molecular target: T1, PiAHAS mutant W605S (Lobosphaera incisa, UniProt I3VJH2, W604S)
T1 sequence (I3VJH2 with tags, fused parts or gaps W604S): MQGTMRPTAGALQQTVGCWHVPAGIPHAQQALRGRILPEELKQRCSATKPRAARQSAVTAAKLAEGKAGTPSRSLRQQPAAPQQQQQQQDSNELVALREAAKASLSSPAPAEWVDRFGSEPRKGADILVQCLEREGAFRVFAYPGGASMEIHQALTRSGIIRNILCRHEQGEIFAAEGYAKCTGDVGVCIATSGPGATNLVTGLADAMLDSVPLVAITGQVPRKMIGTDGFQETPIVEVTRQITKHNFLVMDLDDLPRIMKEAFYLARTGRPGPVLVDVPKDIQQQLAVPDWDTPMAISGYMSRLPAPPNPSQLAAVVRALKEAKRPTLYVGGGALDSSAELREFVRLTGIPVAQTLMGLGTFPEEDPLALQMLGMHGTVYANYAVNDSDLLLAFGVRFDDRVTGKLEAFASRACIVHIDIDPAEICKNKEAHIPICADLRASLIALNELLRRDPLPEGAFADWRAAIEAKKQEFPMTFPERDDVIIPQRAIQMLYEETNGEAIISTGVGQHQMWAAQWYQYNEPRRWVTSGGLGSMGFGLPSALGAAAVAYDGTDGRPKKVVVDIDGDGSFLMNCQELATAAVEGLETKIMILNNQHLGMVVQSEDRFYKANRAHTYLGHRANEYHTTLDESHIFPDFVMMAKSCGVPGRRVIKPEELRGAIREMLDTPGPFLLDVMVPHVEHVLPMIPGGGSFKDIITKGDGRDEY
Assay: PiAHAS in vitro enzyme assay, inhibition by SMM (mutant)
Type: biochemical, Parietochloris incisa
Conditions: even at high concentrations of 200 μM
Procedure: To overexpress the hexahistidine (6xHis)-tagged PiAHAS genes in E. coli strain JM109, plasmids pQE-WT and pQE-MUT were used. These plasmids were constructed by inserting the BamHI-SalI fragment containing the cloned PiAHAS wt and mutant genes into plasmid pQE30 (Qiagen, Hilden, Germany). These plasmids express PiAHAS fused at its N-terminus to the pQE30 6xHis leader. pQE-WT and pQE-MUT were transformed into E. coli for expression. […] The AHAS catalytic activity was determined as previously described (Bar-Ilan A et al. Binding and activation of thiamin diphosphate in acetohydroxyacid synthase. Biochemistry (N.Y.) 2001, 40, 11946-11954). […] Km for pyruvate and Ki for SMM were determined by varying the concentration of the factor in question. Protein concentration was determined by the dye-binding method of Bradford (Bradford MM. A rapid and sensitive method for the quantitation of microgram quantities of protein utilizing the principle of protein-dye binding. Anal. Biochem. 1976, 72, 248-254), with bovine serum albumin as standard. […]
The Ki was determined to be >30×106, 7 orders of magnitude higher than that of the wild type.

COC(=O)c1ccccc1S(=O)(=O)NC(=O)Nc1nc(C)cc(C)n1 [SMM, sulfometuron methyl]
inhibition of enzyme by SMM: strong resistance
